The source made the active and inactive calls.
Legend:
[1] = Vero E6 cell cytotoxicity, dose response, cytotoxicity control for non-replicating M. tuberculosis project, secondary assay (AID 492998); format: functional, VeroE6; conditions: Vero C1008
[2] = test system: Streptococcus sp. 'group A'; assay: growth inhibition of control SK(-) GAS strain, dose response, counter-screen for streptokinase expression inhibitor project, luminescence, kanamycin, BacTiterGlo, confirmation (AID 1900); format: functional, organism-based
[3] = THP-1 cell cytotoxicity, dose response, cytotoxicity control, set 3 (AID 504852); format: functional; conditions: Mycobacterium tuberculosis
[4] = cytotoxicity toward NIH3T3 fibroblasts, dose response, counter-screen, cell-based, ATP luminescence, mouse fibroblasts (AID 2010); format: functional;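 also: cells exposed to compound for about 90 hours before reading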
[5] = Vero cell cytotoxicity, cytotoxicity control for M. tuberculosis inhibitor project, purified and synthesized samples, set 3 (AID 504684); format: functional
[6] = inhibitors of firefly luciferase expression or activity, dose response, H4 neuroglioma cells, luminescence (AID 1990); format: functional, cell-based
[7] = A Cell Based Secondary Assay to Explore Cytotoxicity in HepG2 Cells of Compounds that Modulate Mycobacterium tuberculosis in Media Containing Glycerol versus Media without Glycerol (2).; format: functional
[8] = inhibitors of intracellular T. cruzi replication, confirmation, NIH3T3 host cells, beta-gal luminescence (AID 2044); format: functional, cell-based;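 also: intracellular parasites grown in NIH/3T3 mouse fibroblasts as host cells; luminescent beta-galactosidase reporter signal from transgenic T. cruzi replicating inside host cells; inhibitors lower the luminescence signal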
[9] = Luminescence Cell-Based Dose Response HTS to Identify Inhibitors of 5'UTR Stem-Loop Driven Prion Protein mRNA Translation in H4 Neuroglioblastoma Cells. [Related pubchem assays: 1827 (Project Summary), 1813 (Primary HTS)]; format: functional
INS1 = assay: beta cell apoptosis inhibitors, cytokine rescue, dose response, luminescence, retest (AID 449756); format: functional, cell-based; conditions: Rattus norvegicus;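 also: cell death triggered by IL-1 beta plus TNF-alpha plus IFN-gamma mixture; protective hits raise ATP signal compared with cytokine alone wells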
[10] = THP-1 cell cytotoxicity, dose response, cytotoxicity control for non-replicating M. tuberculosis project (AID 489025); format: functional
[11] = microbe, parasite or virus in culture; format: functional; conditions: Mycobacterium tuberculosis
[12] = inhibitors of SNCA 5'UTR-driven reporter translation, confirmation, H4 neuroglioma cells, luminescence (AID 1988); format: functional, cell-based
[13] = HepG2 cell cytotoxicity, dose response, cytotoxicity control, set 3 (AID 504853); format: functional; conditions: Mycobacterium tuberculosis
[14] = Vero cell cytotoxicity, dose response, cytotoxicity control for M. tuberculosis growth inhibitor project, Vero cells, purified and synthesized compounds, set 5 (AID 504909); format: functional; conditions: Mycobacterium tuberculosis
[15] = Vero cell cytotoxicity, dose response, cytotoxicity control for M. tuberculosis growth inhibitor project, Vero cells, purified and synthesized compounds, set 4 (AID 504854); format: functional; conditions: Mycobacterium tuberculosis
[16] = A Cell Based Secondary Assay to Explore Cytotoxicity in THP-1 Cells of Compounds that Modulate Mycobacterium tuberculosis in Media Containing Glycerol versus Media without Glycerol (2).; format: functional
[17] = HepG2 cell cytotoxicity, dose response, cytotoxicity control for non-replicating M. tuberculosis project (AID 489018); format: functional; conditions: Mycobacterium tuberculosis
cells = format: functional
Streptococcus = assay: Group A Streptococcus viability loss, dose response, counter-screen for streptokinase expression inhibitor project, luminescence, BacTiterGlo (AID 1915); format: functional, organism-based;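 also: potency for reduction of bacterial viability or growth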
Streptokinase A = target: T1, Streptokinase A (Streptococcus pyogenes serotype M1, UniProt P10520); assay: S. pyogenes streptokinase expression inhibitors, potency, dose response, plasminogen activation absorbance, OD405 (AID 1914); format: functional, Streptococcus pyogenes M1 GAS;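 also: secreted streptokinase activity via plasminogen activation per viability signal from cell pellet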
T1 sequence (P10520 whole entry): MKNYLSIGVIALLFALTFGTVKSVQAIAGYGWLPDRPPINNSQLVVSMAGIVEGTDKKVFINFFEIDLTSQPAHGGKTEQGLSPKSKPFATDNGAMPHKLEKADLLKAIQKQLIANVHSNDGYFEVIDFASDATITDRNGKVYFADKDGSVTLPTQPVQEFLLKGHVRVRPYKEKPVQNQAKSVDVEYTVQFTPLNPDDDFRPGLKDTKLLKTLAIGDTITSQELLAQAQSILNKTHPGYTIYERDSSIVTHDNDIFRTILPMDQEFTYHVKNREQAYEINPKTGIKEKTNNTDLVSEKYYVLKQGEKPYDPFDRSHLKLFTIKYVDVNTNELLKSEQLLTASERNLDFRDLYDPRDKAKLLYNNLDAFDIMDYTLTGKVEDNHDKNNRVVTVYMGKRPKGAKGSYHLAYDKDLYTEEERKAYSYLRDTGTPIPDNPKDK

[18] = HepG2 cell cytotoxicity, cytotoxicity control, set 4 (AID 504910); format: functional; conditions: Mycobacterium tuberculosis
[19] = THP-1 cell cytotoxicity, cytotoxicity control, set 4 (AID 504911); format: functional; conditions: Mycobacterium tuberculosis
[20] = target: T2, High affinity choline transporter 1 (Homo sapiens, UniProt Q9GZV3); assay: CHT inhibitors, dose response, cell-based, 10-point CRC, membrane potential dye (AID 588401); format: functional;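 also: membrane potential dye fluorescence of choline-evoked depolarization via CHT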
T2 sequence (Q9GZV3 whole entry): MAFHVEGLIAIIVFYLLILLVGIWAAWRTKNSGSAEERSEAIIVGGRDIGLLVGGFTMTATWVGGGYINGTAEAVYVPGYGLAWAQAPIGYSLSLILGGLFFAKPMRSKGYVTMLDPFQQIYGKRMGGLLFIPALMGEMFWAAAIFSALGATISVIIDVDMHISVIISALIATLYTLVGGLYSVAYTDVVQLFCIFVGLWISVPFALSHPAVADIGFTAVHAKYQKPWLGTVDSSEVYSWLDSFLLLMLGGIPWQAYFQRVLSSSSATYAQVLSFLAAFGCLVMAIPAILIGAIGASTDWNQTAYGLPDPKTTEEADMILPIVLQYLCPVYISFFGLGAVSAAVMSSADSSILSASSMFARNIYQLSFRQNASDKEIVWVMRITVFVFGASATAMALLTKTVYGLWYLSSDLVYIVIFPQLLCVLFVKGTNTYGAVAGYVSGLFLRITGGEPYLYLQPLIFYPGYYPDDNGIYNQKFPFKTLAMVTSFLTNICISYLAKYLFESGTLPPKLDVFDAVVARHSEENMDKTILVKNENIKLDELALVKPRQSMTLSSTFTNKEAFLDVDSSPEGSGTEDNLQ

[21] = target: T2, High affinity choline transporter 1; assay: CHT inhibitors, dose response, cell-based, 5-point CRC, membrane potential dye (AID 504840); format: functional

Compound: c1ccc(N=C2N=C(Nc3ccccn3)c3ccccc32)nc1
- CC50 [1]: 0.5 µM (active)
- EC50 [2]: 5.41 µM (active)
- CC50 [3]: > 71.4 µM (active)
- EC50 [4]: 17.7 µM (active)
- CC50 [5]: < 0.2 µM (active)
- EC50 [6]: 10.5 µM (active)
- CC50 [7]: < 0.1 µM (active)
- EC50 [8]: 0.687 µM (active)
- EC50 [9]: > 120 µM (not active)
- AC50 (INS1): 0.795 µM (active)
- CC50 [10]: 0.148 µM (active)
- CC50 [11]: > 40 µM (active)
- EC50 [12]: 13.4 µM (active)
- CC50 [13]: 21.2 µM (active)
- CC50 [14]: 60.5 µM (active)
- CC50 [15]: > 100 µM (active)
- CC50 [16]: < 0.2 µM (active)
- CC50 [17]: < 0.039 µM (active)
- IC50 (cells): < 0.1 µM (active)
- EC50 (Streptococcus): > 150 µM (not active)
- EC50 (Streptokinase A): 22.2 µM (active)
- CC50 [18]: > 41.3 µM (active)
- CC50 [19]: > 76.9 µM (active)

Compound: Cc1ccc[n+](CC(=O)c2ccc(Br)cc2)c1
- IC50 [20]: 0.713 µM (active)
- IC50 [21]: 0.0775 µM (inconclusive)
